Measured values reported in the NIST ThermoML archive (doi:10.1021/acs.jced.5b00724).
Where “and” joins values, the source holds several entries; their conditions need not be identical. Identical values can stand only once. Numbers after ± are expanded uncertainties.

Key:
[1] = refractive index (Na D-line) (dimensionless); conditions: 298.15 K; 101.33 kPa; Liquid; Standard Abbe refractometry
[2] = Boiling temperature at pressure P; conditions: Liquid, Ebulliometric method (Recirculating still)
[3] = Liquid; for mass density: Vibrating tube method

CC1CCC(=O)O1 (stereo not given) [γ-valerolactone]
Conditions | refractive index
[1] | 1.4316 ± 0.0012

[2]
Conditions | Boiling temperature at pressure P [°C]
0.58 kPa | 65.0 ± 6.3
1.14 kPa | 77.5 ± 5.7
1.49 kPa | 83.04 ± 3.9
1.86 kPa | 87.47 ± 3
2.49 kPa | 93.77 ± 2.1
4.37 kPa | 106.5 ± 1.3
8.66 kPa | 123.7 ± 1.1
10.61 kPa | 129.4 ± 0.8
11.92 kPa | 132.8 ± 0.6
16.51 kPa | 142.2 ± 0.6
20.17 kPa | 148.1 ± 0.5
27.32 kPa | 157.78 ± 0.35
35.64 kPa | 166.5 ± 0.3
43.21 kPa | 173.18 ± 0.23
61.04 kPa | 185.72 ± 0.2
82.18 kPa | 197.04 ± 0.18

[3]
Conditions | mass density | vapor or sublimation pressure [kPa]
293.15 K, 186 kPa | 1053.38 ± 1 kg/m3 | –
293.15 K, 187.01 kPa | 1053.43 ± 1 kg/m3 | –
293.15 K, 476.37 kPa | 1053.68 ± 1 kg/m3 | –
293.15 K, 977 kPa | 1054.07 ± 1 kg/m3 | –
293.15 K, 1979.3 kPa | 1054.81 ± 1 kg/m3 | –
293.15 K, 2978.5 kPa | 1055.47 ± 1 kg/m3 | –
293.15 K, 3976.8 kPa | 1056.08 ± 1 kg/m3 | –
293.15 K, 4978.1 kPa | 1056.65 ± 1 kg/m3 | –
298 K, 101.33 kPa | 1049.2 ± 1.2 kg/m3 | –
298.1 K, 107 kPa | 1048.8 ± 1.2 kg/m3 | –
298.16 K, 187.01 kPa | 1048.68 ± 1 kg/m3 | –
298.16 K, 189.01 kPa | 1048.83 ± 1 kg/m3 | –
298.16 K, 480.38 kPa | 1048.97 ± 1 kg/m3 | –
298.16 K, 978 kPa | 1049.41 ± 1 kg/m3 | –
298.16 K, 1980.3 kPa | 1050.16 ± 1 kg/m3 | –
298.16 K, 2980.5 kPa | 1050.86 ± 1 kg/m3 | –
298.16 K, 3977.8 kPa | 1051.48 ± 1 kg/m3 | –
298.16 K, 4976.1 kPa | 1052.05 ± 1 kg/m3 | –
350.18 K, Closed cell (Static) method | – | 1.2 ± 0.2
353.15 K, 187.01 kPa | 996.384 ± 1 kg/m3 | –
353.15 K, 190.01 kPa | 996.734 ± 1 kg/m3 | –
353.15 K, 194.01 kPa | 997.077 ± 1 kg/m3 | –
353.15 K, 198.02 kPa | 997.127 ± 1 kg/m3 | –
353.15 K, 484.38 kPa | 996.824 ± 1.1 kg/m3 | –
353.15 K, 492.39 kPa | 997.272 ± 1.1 kg/m3 | –
353.15 K, 979.01 kPa | 997.655 ± 1.1 kg/m3 | –
353.15 K, 984.01 kPa | 997.904 ± 1 kg/m3 | –
353.15 K, 985.01 kPa | 997.898 ± 1.1 kg/m3 | –
353.15 K, 1981.3 kPa | 998.74 ± 1 kg/m3 | –
353.15 K, 1987.3 kPa | 998.832 ± 1 kg/m3 | –
353.15 K, 1988.3 kPa | 998.837 ± 1 kg/m3 | –
353.15 K, 2979.5 kPa | 999.633 ± 1 kg/m3 | –
353.15 K, 2985.5 kPa | 999.73 ± 1 kg/m3 and 999.724 ± 1 kg/m3 | –
353.15 K, 3979.8 kPa | 1000.43 ± 1 kg/m3 | –
353.15 K, 3983.8 kPa | 1000.53 ± 1 kg/m3 | –
353.15 K, 3986.8 kPa | 1000.53 ± 1 kg/m3 | –
353.15 K, 4978.1 kPa | 1001.2 ± 1 kg/m3 | –
353.15 K, 4983.1 kPa | 1001.29 ± 1 kg/m3 | –
353.15 K, 4984.1 kPa | 1001.29 ± 1 kg/m3 | –
353.16 K, 188.01 kPa | 997.169 ± 1 kg/m3 | –
353.16 K, 489.39 kPa | 997.314 ± 1 kg/m3 | –
393.15 K, 180 kPa | 958.067 ± 1 kg/m3 | –
393.15 K, 182 kPa | 958.857 ± 1 kg/m3 and 958.463 ± 1 kg/m3 | –
393.15 K, 486.38 kPa | 958.065 ± 1 kg/m3 | –
393.15 K, 491.39 kPa | 958.888 ± 1 kg/m3 | –
393.15 K, 978 kPa | 959.43 ± 1.1 kg/m3 | –
393.15 K, 984.01 kPa | 959.712 ± 1 kg/m3 | –
393.15 K, 1981.3 kPa | 960.847 ± 1 kg/m3 | –
393.15 K, 1985.3 kPa | 960.883 ± 1 kg/m3 | –
393.15 K, 2980.5 kPa | 961.927 ± 1 kg/m3 | –
393.15 K, 2984.5 kPa | 961.921 ± 1 kg/m3 | –
393.15 K, 3978.8 kPa | 962.917 ± 1 kg/m3 | –
393.15 K, 3981.8 kPa | 962.913 ± 1 kg/m3 | –
393.15 K, 4977.1 kPa | 963.866 ± 1 kg/m3 | –
393.15 K, 4979.1 kPa | 963.861 ± 1 kg/m3 | –
393.16 K, 203.03 kPa | 958.939 ± 1 kg/m3 | –
433.14 K, 184 kPa | 918.984 ± 1 kg/m3 | –
433.15 K, 181 kPa | 918.395 ± 1 kg/m3 | –
433.15 K, 492.39 kPa | 919.562 ± 1 kg/m3 | –
433.15 K, 1984.3 kPa | 921.775 ± 1 kg/m3 | –
433.15 K, 2984.5 kPa | 923.091 ± 1 kg/m3 | –
433.15 K, 3983.8 kPa | 924.314 ± 1 kg/m3 | –
433.15 K, 4980.1 kPa | 925.496 ± 1 kg/m3 | –
433.16 K, 491.39 kPa | 919.299 ± 1 kg/m3 | –
433.16 K, 982.01 kPa | 920.309 ± 1 kg/m3 | –
453.14 K, 183 kPa | 898.494 ± 1 kg/m3 | –
453.15 K, 199.02 kPa | 898.908 ± 1 kg/m3 | –
453.15 K, 490.39 kPa | 898.859 ± 1 kg/m3 | –
453.15 K, 983.01 kPa | 900.059 ± 1 kg/m3 | –
453.15 K, 1982.3 kPa | 901.6 ± 1 kg/m3 | –
453.15 K, 2985.5 kPa | 903.051 ± 1 kg/m3 | –
453.15 K, 3983.8 kPa | 904.412 ± 1 kg/m3 | –
453.15 K, 4981.1 kPa | 905.731 ± 1 kg/m3 | –
